Results published in patent US6949648B2, “Condensed pyrazole derivatives, process for producing the same and use thereof” (Takeda Pharmaceutical Company Limited, priority 2000, dated 2005).
Where two headings read alike, the source gives them in different places. Marks after values point to notes of the source that are not given here.

Columns and labels:
yeast-induced pyrexia = test: Antipyretic activity in yeast-induced pyrexia; format: in vivo, SD rats; details: 10 mg/kg orally; maximum difference in body temperature vs control over 6 hours
Procedure: Antipyretic Activity in Yeast-Induced Pyrexia Antipyretic activity was determined using male SD origin male-rats (7 weeks old, CLEA Japan, 1 group: n=6), according to the method of winter et. al. (J. Pharmacol. Exp. Ther., vol. 138, p. 405, 1963). Before 16 hours from measurement of body temperature, a suspension of 15% yeast in saline was injected subcutaneously (10 mL/kg, b.w.) into the rats to induce fever, and simultaneously supply of food was terminated while water was made available all the time. Each of the rats was raised separately. After 16 hours from the yeast shot, a thermistor terminal was inserted at an about 4 cm depth into rectum every hour, and the body temperatures after 30 seconds were recorded. After 18 hours, rats developing fevers consistently were selected, and a sample was orally administered to the rats (5 mL/kg, b.w.), while to the control, only the solvent was administered. After the administration, body temperatures were measured every hour for a period of 6 hours, and the maximum difference in body temperature between the rats in the sample group and in the control group were determined as Δ (° C.).

gastric mucosa = test: Disorder of gastric mucosa; format: in vivo, SD rats; details: stomach, 1000 mg/kg orally, fasted rats, 6 hours after dosing
Procedure: Disorder of Gastric Mucosa
Male SD origin male-rats (7 weeks old, CLEA Japan) were used. After 24 hours from the termination of food supply, samples were orally administered (5 mL/kg, b.w.). After 5.5 hours, Evan's Blue (0.5% Evan's Blue/saline) was injected intravenously (1 mL/rat) under no anesthesia. After 30 minutes from the shot, the stomach (with esophagus and duodenum of 1.5 to 2 cm length) was removed by celiotomy, and subsequently, the esophagus terminal was closed with a clip, and a 8 mL of 1% formalin solution was injected into the stomach through the duodenum, which was also closed with a clip after the injection. The stomach was left contacting with the 1% formalin solution for more than 10 minutes, and subsequently cut open from duodenum along the greater curvature of stomach. The stomach was washed and spread on a filter paper, and the length of each of the spots dyed by Evan's Blue (hemorrhagic portion: mucosal ablation to ulcer) was measured under a stereomicroscope, and the total length (mm) was calculated by a counter and recorded.

[1] = test system: acetic acid induced rising and stretching; test: Analgesic activity, acetic acid rising method; format: in vivo, ICR-mice; details: po, 20 min; 10 mg/kg orally, 30 minutes before 0.6% acetic acid i.p.; number of rising and stretching in 20 minutes; read-out: Repression rate (%) Dosage 10 mg/kg
Procedure: Analgesic Activity Acetic Acid Rising Method Male ICR-mice (5 weeks old, CLEA Japan) were used (1 group, n=10), and a sample was orally administered (0.2 mL/10 g, b.w.). After 30 minutes, 0.6% acetic acid solution was injected to mice intraperitoneally (0.1 mL/10 g, b.w.), and the mice were immediately transferred into an observation cage made of a transparent acrylic resin. The number of rising and stretching during the following period of 20 minutes was counted. The repression rate (%) was calculated by comparing the average numbers between the sample groups and the control groups.

[2] = test system: carrageenin edema of right hind limb plantar; test: Anti-inflammatory activity, carrageenin edema method; format: in vivo, SD-rats; details: po, 10 mg/kg orally
Procedure: Anti-Inflammatory Activity
Male SD-rats (6 weeks old, CLEA Japan) were used (1 group, n=6). The Carrageenin edema method was performed according to the method of Winter et. al., (Proc. Soc. Exp. Biol. Med., vol. 111, p. 544-547, 1962). After the volume of right hind limb plantar of the rat was determined, a sample was orally administered (1.0 mL, b.w.), and immediately water was orally administered in an amount of 5 mL/rat. Meanwhile, only the solvent of the sample was orally administered to rats in control. After 1 hour, a solution of 1% carrageenin in saline (0.05 mL) was injected into the right hind limb plantar subcutaneously to induce edema. After 2 and 3 hours later from the injection, volumes of the right hind limb plantar were determined. The repression rate (%) of the sample was calculated by comparing the difference of the volumes of the plantar before the carrageenin shot and 2 and 3 hours after the shot between the sample groups and the control groups.

adjuvant arthritis = test: Anti-adjuvant-arthritic activity; format: in vivo, SD rats; details: 10 mg/kg orally once a day for 14 days; volume of left hind limb (not injected); day of reading not given
Procedure: Anti-Adjuvant-Arthritic Activity
Male SD origin male-rats (6 weeks old, CLEA Japan, 1 group: n=7) were used. The adjuvant arthritis method was conducted according to the method of Newbould B. B. et. al., (Brit. J. Pharmacol. Chemother., vol. 21, p. 127, 1963). Complete Freund's adjuvant (a suspension of killed tubercule bacillus in liquid paraffin at a concentration of 0.5%, 0.05 mL) was injected into the right hind limb footpad intracutaneouly to induce multiple arthritis. Samples were administered orally (10 mg/kg, b.w.), once a day for 14 days from the day before the injection day 0 to day 13. Volume of the left hind limb (not injected) was determined by the foot-volume measurement apparatus manufactured by Ugo Basile, on the day just before the adjuvant shot (Day 0), Day 10 and Day 14, and repression rate (%) was calculated comparing the values between the sample group and the control group.

[3] = test system: mucosa of small intestine; test: Disorder of mucosa of small intestine; format: in vivo, SD rats; details: 300 mg/kg orally, freely fed rats, 6 hours after dosing
Procedure: Disorder of Mucosa of Small Intestine Male SD origin male-rats (7 weeks old, CLEA Japan) were used. To the rats freely fed, samples were administered orally (5 mL/kg, b.w.). After 5.5 hours from the administration, Evan's Blue (0.5% Evan's Blue/saline) was injected (1 mL/rat) intravenously under no anesthesia. After 30 minutes from the shot, the intestine was removed by celiotomy and the area thereof facing mesentery was cut open. After removal of intestinal content, the spots in the intestine dyed by Evan's Blue were measured under a stereomicroscope, and the total length (mm) of the spots was determined by a counter and recorded.

human COX-2 = target: T1, human COX-2 (Homo sapiens, UniProt P35354); test: Determination of COX-2 inhibitory activity (microsome fraction, chemiluminescence); format: biochemical; details: microsome fraction 20 μg, arachidonic acid, 37° C. 25 minutes preincubation; read-out: Repression rate IC50 (μM) COX-2
T1 construct: made in house; host or cells: Sf-21 insect cells (recombinant baculovirus BAC-COX2, pFASTBAC1); microsome fraction
T1 sequence (P35354 18-604): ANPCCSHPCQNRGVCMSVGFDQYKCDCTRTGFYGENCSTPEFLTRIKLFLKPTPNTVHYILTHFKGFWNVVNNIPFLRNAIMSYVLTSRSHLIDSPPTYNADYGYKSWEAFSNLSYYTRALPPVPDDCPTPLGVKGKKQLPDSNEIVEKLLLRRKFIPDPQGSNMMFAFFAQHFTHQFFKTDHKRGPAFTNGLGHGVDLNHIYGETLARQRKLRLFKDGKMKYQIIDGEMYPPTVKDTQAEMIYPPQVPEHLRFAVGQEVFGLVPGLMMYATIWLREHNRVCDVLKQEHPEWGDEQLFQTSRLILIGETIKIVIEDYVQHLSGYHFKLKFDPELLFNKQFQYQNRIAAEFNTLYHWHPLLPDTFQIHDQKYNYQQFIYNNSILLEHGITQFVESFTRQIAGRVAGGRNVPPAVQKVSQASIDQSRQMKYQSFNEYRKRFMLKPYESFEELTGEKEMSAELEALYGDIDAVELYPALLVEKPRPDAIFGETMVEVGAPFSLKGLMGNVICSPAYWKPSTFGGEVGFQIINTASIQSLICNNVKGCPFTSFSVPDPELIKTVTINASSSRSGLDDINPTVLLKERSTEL
Procedure: A 1.8 kb DNA fragment containing human COX-2 cDNA (Proc. Natl. Acad. Sci. U.S.A., vol. 89 (16), p. 7384-7388 (1992)) prepared by the PCR method was inserted into plasmid pFASTBAC1 (CIBCOBRAL) to obtain a plasmid pFBCOX2.
Using the plasmid pFBCOX2 and BAC-TO-BAC Baculovirus Expression System (GIBCOBRAL), a virus stock BAC-COX2 of the recombinant baculovirus was prepared.
Sf-21 cells were inoculated in 125 mL of LSf-900 II SFM medium (GIBCOBRAL) at a concentration of 1×10^6 cells/mL, and the medium was incubated at 27° C. for 24 hours. 0.75 mL of the virus stock BAC-COX2 of the recombinant baculovirus was added thereto, and was incubated further for 72 hours. The cells were separated from the medium by centrifugation (3000 rpm, 10 min), and washed with PBS twice. The cells were suspended in 10 mL of a Lysis buffer (0.1M Tris-HCl (pH 7.4), 5 mM EDTA), and were treated with a homogenizer (POLYTRON), three times at 20000 rpm for 20 seconds so that the cells were crushed. The supernatant thus obtained after centrifugation (2000 rpm, 10 minutes) was further centrifuged (40000 rpm, 45 minutes) to obtain a precipitate, which was resuspended in a Lysis buffer (0.1M Tris-HCl (pH 7.4), 5 mM EDTA), and the suspension was stored at −80° C.
(§1) Determination of COX-1 and COX-2 Inhibitory Activities
(§2) To a mixture of 20 μL of a reaction buffer previously concentrated 10 times (1M Tris-HCl (pH8.0), 50 mM EDTA, 1.0% Tween 20, 50 mM luminol, 100 μM hematin), 20 μL of the microsome fractions (COX-1: 40 μg, COX-2: 20 μg), and 55 μL of distilled water, a sample compound dissolved in DMF (5 μL) was added, and the mixture was left at 37° C. for 25 minutes. The reaction was started by the addition of 20 μM arachidonic acid (100 μL), and chemiluminescence amount during the 10-second period after the addition of arachidonic acid was determined by the use of Lumistar (BMG Lab technologies, GmbH). The inhibition rate was calculated, regarding that the enzyme activity when DMF ([…]) was added was 100%, and the enzyme activity when 4 mM flurbiprofen (5 μL) was added was 0%.

human COX-1 = target: T2, human COX-1 (Homo sapiens, UniProt P23219); test: Determination of COX-1 inhibitory activity (microsome fraction, chemiluminescence); format: biochemical; details: microsome fraction 40 μg, arachidonic acid, 37° C. 25 minutes preincubation; read-out: Repression rate IC50 (μM) COX-1
T2 construct: made in house; host or cells: Sf-21 insect cells (recombinant baculovirus BAC-COX1, pFASTBAC1); microsome fraction
T2 sequence (P23219 24-599): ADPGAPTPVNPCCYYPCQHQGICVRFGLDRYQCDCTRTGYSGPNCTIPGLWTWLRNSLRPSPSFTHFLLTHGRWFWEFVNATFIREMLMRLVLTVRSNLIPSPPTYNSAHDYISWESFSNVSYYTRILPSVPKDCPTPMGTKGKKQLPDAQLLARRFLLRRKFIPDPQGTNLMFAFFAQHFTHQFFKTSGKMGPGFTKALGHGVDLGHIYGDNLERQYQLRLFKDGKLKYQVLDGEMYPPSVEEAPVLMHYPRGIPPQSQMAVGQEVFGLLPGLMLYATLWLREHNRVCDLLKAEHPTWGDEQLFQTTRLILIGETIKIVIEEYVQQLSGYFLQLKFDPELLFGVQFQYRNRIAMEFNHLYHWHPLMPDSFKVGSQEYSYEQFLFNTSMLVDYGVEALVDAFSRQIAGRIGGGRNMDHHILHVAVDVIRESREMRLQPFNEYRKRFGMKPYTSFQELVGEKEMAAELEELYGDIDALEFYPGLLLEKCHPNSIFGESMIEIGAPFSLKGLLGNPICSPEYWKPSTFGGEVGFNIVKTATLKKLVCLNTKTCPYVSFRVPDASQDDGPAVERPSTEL
Procedure: A 1.8 kb DNA fragment containing human COX-1 cDNA (FASEB J., vol. 5 (9), p. 2304-2312 (1991)) prepared by the PCR method was inserted into plasmid pFASTBAC1 (CIBCOBRL) to obtain a plasmid pFBCOX1.
Using the plasmid pFBCOX1 and BAC-TO-BAC Baculovirus Expression System (GIBCOBRL), a virus stock BAC-COX1 of the recombinant baculovirus was prepared.
Sf-21 cells were inoculated in 125 mL of Sf-900 II SFM medium (GIBCOBRL) at a concentration of 1×10^6 cells/mL, and the medium was incubated at 27° C. for 24 hours. 0.75 mL of the virus stock BAC-COX1 of the recombinant baculovirus was added thereto, and the mixture was incubated further for 72 hours. The cells were separated from the medium by centrifugation (3000 rpm, 10 min), and washed with PBS twice. The cells were suspended in 10 mL of a Lysis buffer (0.1M Tris-HCl (pH 7.4), 5 mM EDTA), and were treated with a homogenizer (POLYTRON) three times at 20000 rpm for 20 seconds so that the cells were crushed. The supernatant obtained after centrifugation (2000 rpm, 10 minutes) was further centrifuged (40000 rpm, 45 minutes) to give a precipitate, which was resuspended in a Lysis buffer (0.1M Tris-HCl (pH 7.4), 5 mM EDTA), and the suspension was stored at −80° C.
as §1, §2

Row | SMILES | Δ (° C.) Dosage 10 mg/kg (yeast-induced pyrexia) | Total length of dyed spots (mm) (gastric mucosa) | inhibition in vivo at 10 mg/kg [1] [%] | inhibition in vivo at 10 mg/kg ([2]; 2 hr after carrageenin injection, read-out: Repression rate (%) Dosage 10 mg/kg 2 hr later) [%] | inhibition in vivo at 10 mg/kg ([2]; 3 hr after carrageenin injection, read-out: Repression rate (%) Dosage 10 mg/kg 3 hr later) [%] | melting point [°C] | Repression rate (%) Dosage 10 mg/kg (adjuvant arthritis) | Total length of dyed spots (mm) [3] | IC50 (human COX-2) [µM] | IC50 (human COX-1) [µM]
1 | Cc1nn(-c2ccccn2)c2[nH]c3cc(F)c(F)cc3c(=O)c12 [Example 2-91, 6,7-Difluoro-3-methyl-1-(2-pyridinyl)-1,9-dihydro-4H-pyrazolo[3,4-b]quinolin-4-one] | 1.5** ° C. | 0 (1000 mg/kg) mm | 65 | 51 | 42 | 274 to 277 | 76** % | – | – | –
2 | Cc1nn(-c2ccccn2)c2[nH]c3cc(F)c(F)cc3c(=O)c12.O [Example 2-92, 6,7-Difluoro-3-methyl-1-(2-pyridinyl)-1,9-dihydro-4H-pyrazolo[3,4-b]quinolin-4-one monohydrate] | – | 0 (1000 mg/kg) mm | – | – | – | – | – | 0 (300 mg/kg) mm | 0.465 | 0.677
